Source: patent publication US20250114374A1, “BCL-2 INHIBITORS” (Newave Pharmaceutical Inc., priority 2021, published 2025)
Where a name gives a salt, the structure may show the parent alone. Read-outs that look alike come from different tables or passages of the source.

Tested on: RS4; 11 with G101V mutation
Experiment: In vitro anti-proliferation assay (ATPlite luminescence) in BCL-2-dependent ALL cell line RS4;11 with G101V mutation
Assay type: cell-based
Details: cellular anti-proliferative IC50, about 72 hours, medium with 10% FBS, ATPlite, read-out: RS411-G101V IC50
Method: Cell antiproliferation was assayed by PerkinElmer ATPlite™ Luminescence Assay System. Briefly, the various test cancer cell lines were plated at a density of about 1×10^4 cells per well in Costar 96-well plates, and were incubated with different concentrations of compounds for about 72 hours in medium supplemented with 10% FBS. One lyophilized substrate solution vial was then reconstituted by adding 5 mL of substrate buffer solution, and was agitated gently until the solution was homogeneous. About 50 μL of mammalian cell lysis solution was added to 100 μL of cell suspension per well of a microplate, and the plate was shaken for about five minutes in an orbital shaker at ˜700 rpm. This procedure was used to lyse the cells and to stabilize the ATP. Next, 50 μL substrate solution was added to the wells and microplate was shaken for five minutes in an orbital shaker at ˜700 rpm. Finally, the luminescence was measured by a PerkinElmer TopCount® Microplate Scintillation Counter. Such assays, carried out with a range of doses of test compounds, allowed the determination of the cellular anti-antiproliferative IC50 of the compounds of the present invention.
The following table lists the IC50 values of another study for certain compounds of the invention.

| SMILES | IC50 | IC50 (hydrochloride) |
| --- | --- | --- |
| COc1cc(CN2CCN(C3CC4(CCN(c5ccc(C(=O)NS(=O)(=O)c6ccc(NCC7CCC(C)(O)CC7)c([N+](=O)[O-])c6)c(N6c7cc8cc[nH]c8nc7O[C@H]7COCC[C@@H]76)c5)CC4)C3)[C@@H](c3ccccc3OC(C)C)C2)cnc1N1CCOC[C@H]1C (stereo partly drawn) [Example 111, 2-[(3R,8S)-2,5-dioxa-9,15,17-triazatetracyclo[8.7.0.0^{3,8}.0^{12,16}]heptadeca-1(10),11,13,16-tetraen-9-yl]-4-{2-[(2S)-2-(2-isopropoxyphenyl)-4-({5-methoxy-6-[(3R)-3-methylmorpholin-4-yl]pyridin-3-yl}methyl)piperazin-1-yl]-7-azaspiro[3.5]nonan-7-yl}-N-[3-nitro-4-({[(1r,4r)-4-hydroxy-4-methylcyclohexyl]methyl}amino)benzenesulfonyl]benzamide] | 10.7 nM |  |
| Cc1ccccc1[C@@H]1CN(C2CCC(C)(O)CC2)CCN1C1CC2(CCN(c3ccc(C(=O)NS(=O)(=O)c4ccc(NCC5CCC(C)(O)CC5)c([N+](=O)[O-])c4)c(N4c5cc6cc[nH]c6nc5O[C@H]5COCC[C@@H]54)c3)CC2)C1 (stereo partly drawn) [Example 112, 2-[(3R,8S)-2,5-dioxa-9,15,17-triazatetracyclo[8.7.0.0^{3,8}.0^{12,16}]heptadeca-1(10),11,13,16-tetraen-9-yl]-4-{2-[(2R)-2-(2-methylphenyl)-4-[(1r,4r)-4-hydroxy-4-methylcyclohexyl]piperazin-1-yl]-7-azaspiro[3.5]nonan-7-yl}-N-[3-nitro-4-({[(1r,4r)-4-hydroxy-4-methylcyclohexyl]methyl}amino)benzenesulfonyl]benzamide] | 10.9 nM |  |
| Cc1ccccc1[C@@H]1CN(C2CCC(C)(O)CC2)CCN1C1CC2(CCN(c3ccc(C(=O)NS(=O)(=O)c4ccc(NCC5CCC(C)(O)CC5)c([N+](=O)[O-])c4)c(N4c5cc6cc[nH]c6nc5O[C@H]5COCC[C@@H]54)c3)CC2)C1 (stereo partly drawn) [Example 113, 2-[(3R,8S)-2,5-dioxa-9,15,17-triazatetracyclo[8.7.0.0^{3,8}.0^{12,16}]heptadeca-1(10),11,13,16-tetraen-9-yl]-4-{2-[(2R)-2-(2-methylphenyl)-4-[(1s,4s)-4-hydroxy-4-methylcyclohexyl]piperazin-1-yl]-7-azaspiro[3.5]nonan-7-yl}-N-[3-nitro-4-({[(1r,4r)-4-hydroxy-4-methylcyclohexyl]methyl}amino)benzenesulfonyl]benzamide hydrochloride] |  | 8.2 nM |
| Cc1ccccc1[C@@H]1CN(C2CCOCC2)CCN1C1CC2(CCN(c3ccc(C(=O)NS(=O)(=O)c4ccc(NCC5CCC(C)(O)CC5)c([N+](=O)[O-])c4)c(N4c5cc6cc[nH]c6nc5O[C@H]5COCC[C@@H]54)c3)CC2)C1 (stereo partly drawn) [Example 114, 2-[(3R,8S)-2,5-dioxa-9,15,17-triazatetracyclo[8.7.0.0^{3,8}.0^{12,16}]heptadeca-1(10),11,13,16-tetraen-9-yl]-4-{2-[(2R)-2-(2-methylphenyl)-4-(oxan-4-yl)piperazin-1-yl]-7-azaspiro[3.5]nonan-7-yl}-N-[3-nitro-4-({[(1r,4r)-4-hydroxy-4-methylcyclohexyl]methyl}amino)benzenesulfonyl]benzamide] | 11.8 nM |  |
| CC(C)Oc1ccccc1[C@H]1CN(Cc2ccc(F)c(F)c2)CCN1C1CC2(CCN(c3ccc(C(=O)NS(=O)(=O)c4ccc(NCC5CCC(C)(O)CC5)c([N+](=O)[O-])c4)c(N4c5cc6cc[nH]c6nc5O[C@H]5COCC[C@@H]54)c3)CC2)C1 (stereo partly drawn) [Example 115, 4-{2-[(2S)-4-[(3,4-difluorophenyl)methyl]-2-(2-isopropoxyphenyl)piperazin-1-yl]-7-azaspiro[3.5]nonan-7-yl}-2-[(3R,8S)-2,5-dioxa-9,15,17-triazatetracyclo[8.7.0.0^{3,8}.0^{12,16}]heptadeca-1(10),11,13,16-tetraen-9-yl]-N-[3-nitro-4-({[(1r,4r)-4-hydroxy-4-methylcyclohexyl]methyl}amino)benzenesulfonyl]benzamide] | 27.3 nM |  |
| CC(C)Oc1ccccc1[C@H]1CN(Cc2ccc(N3CCOC[C@H]3C)cc2)CCN1C1CC2(CCN(c3ccc(C(=O)NS(=O)(=O)c4ccc(NCC5CCC(C)(O)CC5)c([N+](=O)[O-])c4)c(N4c5cc6cc[nH]c6nc5O[C@H]5COCC[C@@H]54)c3)CC2)C1 (stereo partly drawn) [Example 116, 2-[(3R,8S)-2,5-dioxa-9,15,17-triazatetracyclo[8.7.0.0^{3,8}.0^{12,16}]heptadeca-1(10),11,13,16-tetraen-9-yl]-4-{2-[(2S)-2-(2-isopropoxyphenyl)-4-({4-[(3R)-3-methylmorpholin-4-yl]phenyl}methyl)piperazin-1-yl]-7-azaspiro[3.5]nonan-7-yl}-N-[3-nitro-4-({[(1r,4r)-4-hydroxy-4-methylcyclohexyl]methyl}amino)benzenesulfonyl]benzamide] | 28.7 nM |  |
| CC(C)Oc1ccccc1[C@H]1CN(Cc2cnc3c(c2)OCCO3)CCN1C1CC2(CCN(c3ccc(C(=O)NS(=O)(=O)c4ccc(NCC5CCC(C)(O)CC5)c([N+](=O)[O-])c4)c(N4c5cc6cc[nH]c6nc5O[C@H]5COCC[C@@H]54)c3)CC2)C1 (stereo partly drawn) [Example 117, 2-[(3R,8S)-2,5-dioxa-9,15,17-triazatetracyclo[8.7.0.0^{3,8}.0^{12,16}]heptadeca-1(10),11,13,16-tetraen-9-yl]-4-{2-[(2S)-4-{2H,3H-[1,4]dioxino[2,3-b]pyridin-7-ylmethyl}-2-(2-isopropoxyphenyl)piperazin-1-yl]-7-azaspiro[3.5]nonan-7-yl}-N-[3-nitro-4-({[(1r,4r)-4-hydroxy-4-methylcyclohexyl]methyl}amino)benzenesulfonyl]benzamide] | 13.2 nM |  |
| COc1cc(CN2CCN(C3CC4(CCN(c5ccc(C(=O)NS(=O)(=O)c6ccc(NCC7CCC(C)(O)CC7)c([N+](=O)[O-])c6)c(N6c7cc8cc[nH]c8nc7O[C@H]7COCC[C@@H]76)c5)CC4)C3)[C@H](c3ccccc3C)C2)cnc1OC (stereo partly drawn) [Example 118, 4-{2-[(2R)-4-[(5,6-dimethoxypyridin-3-yl)methyl]-2-(2-methylphenyl)piperazin-1-yl]-7-azaspiro[3.5]nonan-7-yl}-2-[(3R,8S)-2,5-dioxa-9,15,17-triazatetracyclo[8.7.0.0^{3,8}.0^{12,16}]heptadeca-1(10),11,13,16-tetraen-9-yl]-N-[3-nitro-4-({[(1r,4r)-4-hydroxy-4-methylcyclohexyl]methyl}amino)benzenesulfonyl]benzamide] | 4.4 nM |  |
| COc1cc(CN2CCN(C3CC4(CCN(c5ccc(C(=O)NS(=O)(=O)c6ccc(NCC7CCC(C)(O)CC7)c([N+](=O)[O-])c6)c(N6c7cc8cc[nH]c8nc7O[C@H]7COCC[C@@H]76)c5)CC4)C3)[C@@H](c3ccccc3OC(C)C)C2)cnc1N1CCOCC1 (stereo partly drawn) [Example 119, N-((4-((((1r,4r)-4-hydroxy-4-methylcyclohexyl)methyl)amino)-3-nitrophenyl)sulfonyl)-4-(2-((S)-2-(2-isopropoxyphenyl)-4-((5-(methoxy-d3)-6-morpholinopyridin-3-yl)methyl)piperazin-1-yl)-7-azaspiro[3.5]nonan-7-yl)-2-((5aS,9aR)-6,7,9,9a-tetrahydro-1H-pyrano[3,4-b]pyrrolo[3′,2′:5,6]pyrido[3,2-e][1,4]oxazin-5(5aH)-yl)benzamide] | 14.6 nM |  |
| COc1cc(CN2CCN([C@@H]3CC4(CCN(c5ccc(C(=O)NS(=O)(=O)c6ccc(NCC7CCC(C)(O)CC7)c([N+](=O)[O-])c6)c(N6c7cc8cc[nH]c8nc7O[C@H]7COCC[C@@H]76)c5)CC4)[C@@H]3C)[C@@H](c3ccccc3OC(C)C)C2)cnc1N1CCOCC1 (stereo partly drawn) [Example 120, 2-[(3R,8S)-2,5-dioxa-9,15,17-triazatetracyclo[8.7.0.0^{3,8}.0^{12,16}]heptadeca-1(10),11,13,16-tetraen-9-yl]-4-[(1S,2R)-2-[(2S)-2-(2-isopropoxyphenyl)-4-{[5-methoxy-6-(morpholin-4-yl)pyridin-3-yl]methyl}piperazin-1-yl]-1-methyl-7-azaspiro[3.5]nonan-7-yl]-N-[3-nitro-4-({[(1r,4r)-4-hydroxy-4-methylcyclohexyl]methyl}amino)benzenesulfonyl]benzamide] | 147 nM |  |
| COc1cc(CN2CCN([C@@H]3CC4(CCN(c5ccc(C(=O)NS(=O)(=O)c6ccc(NCC7CCC(C)(O)CC7)c([N+](=O)[O-])c6)c(N6c7cc8cc[nH]c8nc7O[C@H]7COCC[C@@H]76)c5)CC4)[C@H]3C)[C@@H](c3ccccc3OC(C)C)C2)cnc1N1CCOCC1 (stereo partly drawn) [Example 121, 2-[(3R,8S)-2,5-dioxa-9,15,17-triazatetracyclo[8.7.0.0^{3,8}.0^{12,16}]heptadeca-1(10),11,13,16-tetraen-9-yl]-4-[(1R,2R)-2-[(2S)-2-(2-isopropoxyphenyl)-4-{[5-methoxy-6-(morpholin-4-yl)pyridin-3-yl]methyl}piperazin-1-yl]-1-methyl-7-azaspiro[3.5]nonan-7-yl]-N-[3-nitro-4-({[(1r,4r)-4-hydroxy-4-methylcyclohexyl]methyl}amino)benzenesulfonyl]benzamide] | 47.9 nM |  |
